Activity calls are given as the source filed them. How the calls were made is not given here.

The target of the test is Signal transducer and activator of transcription 1-alpha/beta (Homo sapiens) (UniProt P42224). Kind of test: STAT1 reporter inhibitors, potency curves, dose response, counter-screen for STAT3 inhibitor project, cell-based, NIH 3T3, luciferase reporter (AID 1411). To be noted: NIH 3T3 fibroblasts, counterscreen.
Sequence of Signal transducer and activator of transcription 1-alpha/beta (Homo sapiens) (P42224 whole entry, looked up): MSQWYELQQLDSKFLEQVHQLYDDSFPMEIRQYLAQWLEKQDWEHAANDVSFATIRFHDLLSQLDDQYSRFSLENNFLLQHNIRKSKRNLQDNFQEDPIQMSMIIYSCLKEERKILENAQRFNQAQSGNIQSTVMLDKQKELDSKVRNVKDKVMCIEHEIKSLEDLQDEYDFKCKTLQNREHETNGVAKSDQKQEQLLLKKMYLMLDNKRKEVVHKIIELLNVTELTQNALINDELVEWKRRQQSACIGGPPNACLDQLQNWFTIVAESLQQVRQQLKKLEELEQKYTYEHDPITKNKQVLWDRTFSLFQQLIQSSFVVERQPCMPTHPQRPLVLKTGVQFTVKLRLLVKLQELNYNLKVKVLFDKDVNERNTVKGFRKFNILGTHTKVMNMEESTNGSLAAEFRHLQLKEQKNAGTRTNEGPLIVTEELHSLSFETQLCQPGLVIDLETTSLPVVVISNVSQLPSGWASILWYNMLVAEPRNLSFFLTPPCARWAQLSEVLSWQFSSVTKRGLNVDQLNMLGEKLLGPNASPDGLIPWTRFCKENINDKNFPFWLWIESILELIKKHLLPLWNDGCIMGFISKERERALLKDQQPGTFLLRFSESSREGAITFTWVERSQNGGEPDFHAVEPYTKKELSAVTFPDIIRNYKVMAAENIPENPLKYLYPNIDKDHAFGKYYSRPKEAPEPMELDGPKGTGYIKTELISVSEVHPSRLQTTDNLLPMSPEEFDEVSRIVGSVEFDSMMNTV
With `CN1/C(=C\C(=O)C[n+]2ccc3ccccc3c2)C(C)(C)c2ccccc21`, the IC50 is > 55.7 µM (inactive).

In the case of `CC(=O)c1ccc(N=Nc2ccc(C)cc2)cc1`, the IC50 result is “inactive”. Next, `O=C(NC1CC1)c1cc2c(s1)-c1ccccc1OC2`: > 55.7 µM (inactive); `C[C@H]1O[C@@H](O[C@H]2[C@@H](O)C[C@H](O[C@H]3[C@@H](O)C[C@H](O[C@H]4CC[C@@]5(C)[C@H](CC[C@@H]6[C@@H]5C[C@@H](O)[C@]5(C)[C@@H](C7=CC(=O)OC7)CC[C@]65O)C4)O[C@@H]3C)O[C@@H]2C)C[C@H](O)[C@@H]1O`: > 55.7 µM (inactive).

On to `Cc1ccc(-n2nnnc2SCn2nnc3ccccc3c2=O)c(C)c1`, for which the IC50 was > 55.7 µM (inactive).

Regarding `Cc1ccc(-n2ncc3c(SCc4cccnc4)ncnc32)c(C)c1`, the IC50 was > 55.7 µM (inactive).

On to `COc1ccc(C)cc1-n1nnnc1SCn1nnc2ccccc2c1=O`, for which the IC50 is > 55.7 µM (inactive).

With `C[C@@H]1O[C@@H](O[C@H]2C[C@@H](O)[C@]3(CO)[C@H]4[C@H](O)C[C@]5(C)[C@@H](C6=CC(=O)OC6)CC[C@]5(O)[C@@H]4CC[C@]3(O)C2)[C@H](O)[C@H](O)[C@H]1O`, the IC50 is > 55.7 µM (inactive). In the case of `Cc1nc2ccccc2cc1OCc1ccccc1`, the IC50 is > 55.7 µM (inactive). With `O=C1CCCN1c1ccc(S(=O)(=O)N2CCC(c3ccccc3)CC2)cc1`, the IC50 was > 55.7 µM (inactive). The figure for `Cc1ccc2c(C)nc(Nc3nc(CSc4nc5ccccc5[nH]4)cc(=O)[nH]3)nc2c1` is > 55.7 µM (inactive); for `Cc1ccc(Cl)cc1N1CCN(C(=O)COc2ccc(S(=O)(=O)NC(C)C)cc2)CC1` it is > 55.7 µM (inactive); for `O=C(Nc1cccc(Cl)c1)Nc1ccnc(-c2cccnc2)n1` it is > 55.7 µM (inactive).

On to `CCOC(=O)Cc1csc(SCC(=O)c2c(N)n(CC(C)C)c(=O)n(C)c2=O)n1`, for which the IC50 was > 55.7 µM (inactive). Next, `CCCCCCCc1ccc(-c2ccc(O)cc2)nc1`: > 55.7 µM (inactive); `COC(=O)c1nn(-c2ccc3c(c2)CCN3C(C)=O)cc1O`: 9.87 µM. Regarding `Cn1c(CN2CCCCC2)nc2cc(NC(=O)c3cccc(Br)c3)ccc21`, the IC50 was > 55.7 µM (inactive). Next, `CC1CCC2C(=O)N(c3ccccc3OC(=O)c3ccccc3)C(=O)C2C1` (centres undefined): > 55.7 µM (inactive); `Clc1ccc(CSc2nnc(Cn3cnc4ccccc43)o2)cc1`: > 55.7 µM (inactive). For the compound `COc1ccc(/C=N/NC(=S)Nc2ccccc2[N+](=O)[O-])cc1O`, the IC50 is > 55.7 µM (inactive).

For the compound `Cc1ccccc1OCCCCn1cnc2ccccc21`, the IC50 was > 55.7 µM (inactive). The figure for `Cc1ccc(S(=O)(=O)N(C)c2ccc(C(=O)N3CCN(Cc4ccc5c(c4)OCO5)CC3)cc2)cc1` is > 55.7 µM (inactive).

With `CCOC(=O)c1oc2ccc(S(=O)(=O)Nc3ccc4c(c3)n(C)c(=O)n4C)cc2c1C`, the IC50 result was “inactive”. For the compound `COc1cc(OC)cc(C(=O)Nc2ccc(-c3nc4ccccc4o3)cc2)c1`, the IC50 is > 55.7 µM (inactive). For `COc1ccc(CC(=O)Nc2cccc(SC)c2)cc1OC`, the IC50 is > 55.7 µM (inactive).

On to `CN(C)S(=O)(=O)Oc1cccc(C(=O)Nc2ccc(Cl)cc2)c1`, for which the IC50 was > 55.7 µM (inactive). On to `O=C(COC(=O)c1n[nH]c2ccccc12)Nc1ccc(S(=O)(=O)N2CCCC2)cc1`, for which the IC50 is > 55.7 µM (inactive). Next, `O=C(Nc1ccc(Oc2ccccc2)cc1)c1cnc2n(c1=O)CCS2`: > 55.7 µM (inactive). Turning to `Cn1c(=O)oc2cc(S(=O)(=O)N3CCCC(C(=O)N4CC=C(c5ccccc5)CC4)C3)ccc21` (centres undefined), the IC50 is > 55.7 µM (inactive).
